Measurements taken from PubChem BioAssay (NCI).
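A five-concentration, 48-hour dose response in 96-well plates underlies each endpoint, interpolated linearly between surrounding concentrations. GI50 = concentration required for 50% inhibition of growth. TGI denotes the concentration required for complete inhibition of growth.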

Tests used:
Experiment in all cases: NCI-60 cell line screen, 48 h
PC-3 prostate = test system: PC-3 prostate
A549 NSCLC = test system: A549 NSCLC
COLO 205 colon = test system: COLO 205 colon
BT-549 breast = test system: BT-549 breast
MDA-MB-468 breast = test system: MDA-MB-468 breast
UO-31 renal = test system: UO-31 renal
RPMI-8226 leukemia = test system: RPMI-8226 leukemia
HOP-62 NSCLC = test system: HOP-62 NSCLC
HS 578T breast = test system: HS 578T breast
SF-268 CNS = test system: SF-268 CNS
MDA-MB-435 = test system: MDA-MB-435
MALME-3M melanoma = test system: MALME-3M melanoma
HOP-92 NSCLC = test system: HOP-92 NSCLC
SN12C renal = test system: SN12C renal
NCI-H226 lung = test system: NCI-H226 lung
SK-MEL-2 melanoma = test system: SK-MEL-2 melanoma
NCI-H460 lung = test system: NCI-H460 lung
T-47D breast = test system: T-47D breast
A498 renal = test system: A498 renal
DU-145 prostate = test system: DU-145 prostate
MCF7 breast = test system: MCF7 breast
MOLT-4 leukemia = test system: MOLT-4 leukemia
SNB-19 CNS = test system: SNB-19 CNS
SR leukemia = test system: SR leukemia
KM12 colon = test system: KM12 colon
EKVX NSCLC = test system: EKVX NSCLC
CAKI-1 renal = test system: CAKI-1 renal
HCC-2998 colon = test system: HCC-2998 colon
TK-10 renal = test system: TK-10 renal
OVCAR-4 ovarian = test system: OVCAR-4 ovarian

COc1ccc(-c2cc(-c3cc(C(C)C)c(O)cc3C)nn2-c2ccc(S(N)(=O)=O)cc2)cc1
GI50 (PC-3 prostate): 10.3 µM
TGI (PC-3 prostate): 24.7 µM
GI50 (A549 NSCLC): 6.2 µM
TGI (A549 NSCLC): 20.6 µM
GI50 (COLO 205 colon): 18.7 µM
TGI (COLO 205 colon): 34.1 µM
GI50 (BT-549 breast): 3.29 µM
TGI (BT-549 breast): 13.2 µM
GI50 (MDA-MB-468 breast): 2.07 µM
TGI (MDA-MB-468 breast): 5.71 µM
GI50 (UO-31 renal): 7.83 µM
TGI (UO-31 renal): 20.6 µM
GI50 (RPMI-8226 leukemia): 4.83 µM
TGI (RPMI-8226 leukemia): 32.8 µM
GI50 (HOP-62 NSCLC): 10.7 µM
TGI (HOP-62 NSCLC): 23.9 µM
GI50 (HS 578T breast): 11.9 µM
TGI (HS 578T breast): 38.6 µM
GI50 (SF-268 CNS): 12.9 µM
TGI (SF-268 CNS): 28.6 µM
GI50 (MDA-MB-435): 2.22 µM
TGI (MDA-MB-435): 4.84 µM
GI50 (MALME-3M melanoma): 11.8 µM
TGI (MALME-3M melanoma): 24.3 µM
GI50 (HOP-92 NSCLC): 7.18 µM
TGI (HOP-92 NSCLC): 21.5 µM
GI50 (SN12C renal): 12 µM
TGI (SN12C renal): 25.1 µM
GI50 (NCI-H226 lung): 16.8 µM
TGI (NCI-H226 lung): 38.8 µM
GI50 (SK-MEL-2 melanoma): 13.7 µM
TGI (SK-MEL-2 melanoma): 26.9 µM
GI50 (NCI-H460 lung): 8.42 µM
TGI (NCI-H460 lung): 22 µM
GI50 (T-47D breast): 4.32 µM
TGI (T-47D breast): 21.3 µM
GI50 (A498 renal): 13.9 µM
TGI (A498 renal): 27.8 µM
GI50 (DU-145 prostate): 7.31 µM
TGI (DU-145 prostate): 19.8 µM
GI50 (MCF7 breast): 4.89 µM
TGI (MCF7 breast): 20 µM
GI50 (MOLT-4 leukemia): 2.88 µM
TGI (MOLT-4 leukemia): 8.39 µM
GI50 (SNB-19 CNS): 12.5 µM
TGI (SNB-19 CNS): 25 µM
GI50 (SR leukemia): 1.91 µM
TGI (SR leukemia): 15.1 µM
GI50 (KM12 colon): 3.76 µM
TGI (KM12 colon): 14.6 µM
GI50 (EKVX NSCLC): 10.3 µM
TGI (EKVX NSCLC): 21.9 µM
GI50 (CAKI-1 renal): 5.59 µM
TGI (CAKI-1 renal): 19.2 µM
GI50 (HCC-2998 colon): 11.4 µM
TGI (HCC-2998 colon): 23.6 µM
GI50 (TK-10 renal): 15 µM
TGI (TK-10 renal): 28.4 µM
GI50 (OVCAR-4 ovarian): 13.6 µM
